Measurements published in patent publication US20140335077A1, “Compositions and Methods for the Treatment of Cancer Using IGF-IR Antagonists and MAPK/ERK Inhibitors” (priority 2013, published 2014).

Tests used:
[1] = tested on: IGF-1R, AKT and ERK phosphorylation; assay: IGF-1R signaling activation in ES cell lines (WB for P-IGF-1R, P-AKT, P-ERK); assay type: cell-based; details: serum starved ES cells
IGF-1R [2] = assay: IGF-1R degradation in MEF cells (β-arrestin knockouts, Δ1245 IGF-1R), WB; assay type: cell-based, mouse; details: R− MEF expressing Δ1245 IGF-1R; over 48 h
Description: (§1) Protein lysates were analyzed by WB for IGF-1R and GAPDH as a loading control. […] Data correspond to the mean±SEM from three independent experiments. (B,D) Cell viability of the CP-treated cells for 48 h, in the absence (SFM) or presence of serum, was evaluated by PrestoBlue reagent. […] Data correspond to the mean±SEM from three independent experiments.
(§2) Appropriate primary antibody was incubated overnight at 4° C.

IGF-1R [3] = target: T1, IGF-1R (Mus musculus, UniProt Q60751); assay: as above; assay type: cell-based; details: 24 h
T1 construct: MEF cells expressing full length, wild type IGF-1R; endogenous in cells; host or cells: MEF, and MEF knockout for β-arrestin1, β-arrestin2 or both
Description: as §1, §2

T1 sequence (Q60751 31-737 limits assumed): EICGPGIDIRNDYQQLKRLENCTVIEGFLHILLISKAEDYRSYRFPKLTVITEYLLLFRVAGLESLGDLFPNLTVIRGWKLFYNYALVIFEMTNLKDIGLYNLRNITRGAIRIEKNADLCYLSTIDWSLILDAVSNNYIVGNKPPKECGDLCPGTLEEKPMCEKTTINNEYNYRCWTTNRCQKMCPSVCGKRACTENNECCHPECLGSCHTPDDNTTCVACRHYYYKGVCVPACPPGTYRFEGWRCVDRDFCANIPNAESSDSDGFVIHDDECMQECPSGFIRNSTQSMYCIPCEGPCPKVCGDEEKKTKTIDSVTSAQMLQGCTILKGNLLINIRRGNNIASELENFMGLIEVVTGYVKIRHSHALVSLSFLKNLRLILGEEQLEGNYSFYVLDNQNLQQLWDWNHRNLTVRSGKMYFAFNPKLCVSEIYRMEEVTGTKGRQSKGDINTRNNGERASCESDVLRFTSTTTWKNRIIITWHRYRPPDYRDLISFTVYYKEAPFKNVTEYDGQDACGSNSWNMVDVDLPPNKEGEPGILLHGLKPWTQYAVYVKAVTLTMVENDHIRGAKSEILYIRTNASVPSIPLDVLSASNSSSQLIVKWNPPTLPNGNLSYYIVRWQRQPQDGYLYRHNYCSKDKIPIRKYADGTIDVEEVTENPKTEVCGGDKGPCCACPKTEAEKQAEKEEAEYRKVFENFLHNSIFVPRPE
T1 sequence (Q60751 742-1373 limits assumed): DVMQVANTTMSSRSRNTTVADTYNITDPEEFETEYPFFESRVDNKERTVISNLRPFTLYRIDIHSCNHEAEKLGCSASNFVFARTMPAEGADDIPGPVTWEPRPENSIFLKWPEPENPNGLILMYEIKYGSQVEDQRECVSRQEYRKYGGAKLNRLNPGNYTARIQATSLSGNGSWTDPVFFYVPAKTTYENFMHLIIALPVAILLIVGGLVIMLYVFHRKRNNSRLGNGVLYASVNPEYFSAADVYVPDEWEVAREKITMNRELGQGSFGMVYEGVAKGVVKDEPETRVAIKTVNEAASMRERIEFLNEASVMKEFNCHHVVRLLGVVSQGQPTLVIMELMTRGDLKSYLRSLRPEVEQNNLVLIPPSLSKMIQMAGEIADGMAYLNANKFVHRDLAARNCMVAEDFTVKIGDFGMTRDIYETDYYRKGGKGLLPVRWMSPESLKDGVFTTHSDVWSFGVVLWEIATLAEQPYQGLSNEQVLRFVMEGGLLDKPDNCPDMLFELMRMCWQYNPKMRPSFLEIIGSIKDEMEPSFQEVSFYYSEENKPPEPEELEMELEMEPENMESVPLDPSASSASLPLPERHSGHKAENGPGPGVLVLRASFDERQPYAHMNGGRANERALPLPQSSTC

IGF-1R degradation (IGF-1R [3]; MEF without β-arr1 (β1KO or β1/2 KO)): almost completely abolished
IGF-1R degradation (IGF-1R [3]; control MEF and β2KO cells (expressing β-arr1)): drastically downregulated the receptor
Substance: IGF-1: classical ligand of IGF-1R, used at 50 ng/ml for stimulation
Time to phosphorylation of the IGF-1R activation loop [1]: ≤ 2 min
Degradation of truncated IGF-1R (Δ1245) (IGF-1R [2]): resistant
